In US20240294541A1, “COMPOUNDS CONSTITUTING C20-MODIFIED SALINOMYCIN DERIVATIVES, A METHOD FOR OBTAINING THE SAME, A COMPOSITION CONTAINING THE SAME AND A USE OF SAID COMPOUNDS” (FILECLO SPOLKA Z OGRANICZONA ODPOWIEDZIALNOSCIA, priority 2021, published 2024):
Read-outs that look alike come from different tables or passages of the source.

Experiments:
Format in all cases: cell-based
[1] = test system: MV-4-11 (human biphenotypic leukaemia); experiment: In vitro cytotoxicity, MTT assay, MV-4-11; conditions: for IC50: Homo sapiens, MV4-11, read-out: IC50 (nM) MV4-11
[2] = test system: A2780Cis (cisplatin-resistant human ovarian cancer); experiment: In vitro cytotoxicity, SRB assay, A2780Cis; conditions: for IC50: Homo sapiens, A2780cis, read-out: IC50 (nM) A2780Cis
[3] = test system: BALB/3T3 (normal mouse fibroblasts); experiment: In vitro cytotoxicity, SRB assay, normal BALB/3T3 fibroblasts
[4] = Table 5, BALB/3T3 normal mouse fibroblasts, read-out: IC50 (nM) BALB3T3 normal cells

SMILES	SI MV4-11 [1]	IC50 [1] [nM]	SI A2780Cis [2]	IC50 [2] [nM]	IC50 [3, 4] [nM]	IC50 ([3]; Mus musculus, BALB/3T3, read-out: IC50 (nM) BALB3T3 normal cells) [nM]
CC[C@@H](C(=O)[C@@H](C)[C@@H](O)[C@H](C)[C@@H]1O[C@@H]([C@@H](CC)C(=O)O)CC[C@@H]1C)[C@H]1O[C@]2(C=C[C@@H](NC(=O)C(=O)NCc3ccccc3Cl)[C@]3(CC[C@@](C)([C@H]4CC[C@](O)(CC)[C@H](C)O4)O3)O2)[C@H](C)C[C@@H]1C [FLC-00477-1•Na]	46.1	3.11	40.4	3.54	143	–
CC[C@@H](C(=O)[C@@H](C)[C@@H](O)[C@H](C)[C@@H]1O[C@@H]([C@@H](CC)C(=O)O)CC[C@@H]1C)[C@H]1O[C@]2(C=C[C@@H](NC(=O)OCCCCl)[C@]3(CC[C@@](C)([C@H]4CC[C@](O)(CC)[C@H](C)O4)O3)O2)[C@H](C)C[C@@H]1C [FLC-00530-1•Na]	9.7	6.42	24.0	2.6	62.5	–
CC[C@@H](C(=O)[C@@H](C)[C@@H](O)[C@H](C)[C@@H]1O[C@@H]([C@@H](CC)C(=O)O)CC[C@@H]1C)[C@H]1O[C@]2(C=C[C@@H](NC(=O)OCCC(C)(C)O)[C@]3(CC[C@@](C)([C@H]4CC[C@](O)(CC)[C@H](C)O4)O3)O2)[C@H](C)C[C@@H]1C [FLC-00577-1•Na]	20.4	42.8	30.0	29.1	874	–
CC[C@@H](C(=O)[C@@H](C)[C@@H](O)[C@H](C)[C@@H]1O[C@@H]([C@@H](CC)C(=O)O)CC[C@@H]1C)[C@H]1O[C@]2(C=C[C@@H](NC(=O)OCCN(C)C)[C@]3(CC[C@@](C)([C@H]4CC[C@](O)(CC)[C@H](C)O4)O3)O2)[C@H](C)C[C@@H]1C [FLC-00497-1•Na]	8.2	278	8.2	278	2280	–
CC[C@@H](C(=O)[C@@H](C)[C@@H](O)[C@H](C)[C@@H]1O[C@@H]([C@@H](CC)C(=O)O)CC[C@@H]1C)[C@H]1O[C@]2(C=C[C@@H](NC(=O)OCCS(C)(=O)=O)[C@]3(CC[C@@](C)([C@H]4CC[C@](O)(CC)[C@H](C)O4)O3)O2)[C@H](C)C[C@@H]1C [FLC-00483-1•Na]	15.7	339	21.2	250	5310	–
C#CC(C)(C)OC(=O)N[C@@H]1C=C[C@]2(O[C@H]([C@@H](CC)C(=O)[C@@H](C)[C@@H](O)[C@H](C)[C@@H]3O[C@@H]([C@@H](CC)C(=O)O)CC[C@@H]3C)[C@@H](C)C[C@H]2C)O[C@@]12CC[C@@](C)([C@H]1CC[C@](O)(CC)[C@H](C)O1)O2 [FLC-00552-1•Na]	32.1	5.84	46.7	4.02	187	–
CC[C@@H](C(=O)[C@@H](C)[C@@H](O)[C@H](C)[C@@H]1O[C@@H]([C@@H](CC)C(=O)O)CC[C@@H]1C)[C@H]1O[C@]2(C=C[C@@H](NC(=O)OC(C(F)(F)F)C(F)(F)F)[C@]3(CC[C@@](C)([C@H]4CC[C@](O)(CC)[C@H](C)O4)O3)O2)[C@H](C)C[C@@H]1C [FLC-00531-1•Na]	6.2	23.3	13.2	11	–	145
CC[C@@H](C(=O)[C@@H](C)[C@@H](O)[C@H](C)[C@@H]1O[C@@H]([C@@H](CC)C(=O)O)CC[C@@H]1C)[C@H]1O[C@]2(C=C[C@@H](NC(=O)OC3CCOCC3)[C@]3(CC[C@@](C)([C@H]4CC[C@](O)(CC)[C@H](C)O4)O3)O2)[C@H](C)C[C@@H]1C [FLC-00580-1•Na]	32.5	6.51	94.4	2.24	211	–
CC[C@@H](C(=O)[C@@H](C)[C@@H](O)[C@H](C)[C@@H]1O[C@@H]([C@@H](CC)C(=O)O)CC[C@@H]1C)[C@H]1O[C@]2(C=C[C@@H](NC(=O)CBr)[C@]3(CC[C@@](C)([C@H]4CC[C@](O)(CC)[C@H](C)O4)O3)O2)[C@H](C)C[C@@H]1C [FLC-00501-1•Na, C20-aminosalinomycin 2-bromoacetamide]	1.6	1740	1.3	2230	2830	–
CC[C@@H](C(=O)[C@@H](C)[C@@H](O)[C@H](C)[C@@H]1O[C@@H]([C@@H](CC)C(=O)O)CC[C@@H]1C)[C@H]1O[C@]2(C=C[C@@H](NC(=O)C(=O)NCc3cccnc3)[C@]3(CC[C@@](C)([C@H]4CC[C@](O)(CC)[C@H](C)O4)O3)O2)[C@H](C)C[C@@H]1C [FLC-00479-1•Na]	12.6	343	15.8	272	4300	–
CC[C@@H](C(=O)[C@@H](C)[C@@H](O)[C@H](C)[C@@H]1O[C@@H]([C@@H](CC)C(=O)O)CC[C@@H]1C)[C@H]1O[C@]2(C=C[C@@H](NC(=O)C(C)(C)C)[C@]3(CC[C@@](C)([C@H]4CC[C@](O)(CC)[C@H](C)O4)O3)O2)[C@H](C)C[C@@H]1C [FLC-00550-1•Na]	26.6	16.9	42.1	10.6	448	–
CC[C@@H](C(=O)[C@@H](C)[C@@H](O)[C@H](C)[C@@H]1O[C@@H]([C@@H](CC)C(=O)O)CC[C@@H]1C)[C@H]1O[C@]2(C=C[C@@H](NC(=O)OCCN3CCOCC3)[C@]3(CC[C@@](C)([C@H]4CC[C@](O)(CC)[C@H](C)O4)O3)O2)[C@H](C)C[C@@H]1C [FLC-00570-1•Na]	14.6	43.7	21.2	30	636	–
CC[C@@H](C(=O)[C@@H](C)[C@@H](O)[C@H](C)[C@@H]1O[C@@H]([C@@H](CC)C(=O)O)CC[C@@H]1C)[C@H]1O[C@]2(C=C[C@@H](NC(=O)OCCc3scnc3C)[C@]3(CC[C@@](C)([C@H]4CC[C@](O)(CC)[C@H](C)O4)O3)O2)[C@H](C)C[C@@H]1C [FLC-00547-1•Na]	35.2	2.21	≈56.2	< 1.38	77.6	–
CC[C@@H](C(=O)[C@@H](C)[C@@H](O)[C@H](C)[C@@H]1O[C@@H]([C@@H](CC)C(=O)O)CC[C@@H]1C)[C@H]1O[C@]2(C=C[C@@H](NC(=O)N3CCOCC3)[C@]3(CC[C@@](C)([C@H]4CC[C@](O)(CC)[C@H](C)O4)O3)O2)[C@H](C)C[C@@H]1C [FLC-00540-1•Na]	16.5	53.9	24.1	37	891	–
CC[C@@H](C(=O)[C@@H](C)[C@@H](O)[C@H](C)[C@@H]1O[C@@H]([C@@H](CC)C(=O)O)CC[C@@H]1C)[C@H]1O[C@]2(C=C[C@@H](NC(=O)N(C)C)[C@]3(CC[C@@](C)([C@H]4CC[C@](O)(CC)[C@H](C)O4)O3)O2)[C@H](C)C[C@@H]1C [FLC-00538-1•Na]	9.2	103	22.4	42.2	943	–
CC[C@@H](C(=O)[C@@H](C)[C@@H](O)[C@H](C)[C@@H]1O[C@@H]([C@@H](CC)C(=O)O)CC[C@@H]1C)[C@H]1O[C@]2(C=C[C@@H](NC(=O)C(=O)NCc3ccccn3)[C@]3(CC[C@@](C)([C@H]4CC[C@](O)(CC)[C@H](C)O4)O3)O2)[C@H](C)C[C@@H]1C [FLC-00478-1•Na]	9.2	180	25.9	63.6	1650	–
CC[C@@H](C(=O)[C@@H](C)[C@@H](O)[C@H](C)[C@@H]1O[C@@H]([C@@H](CC)C(=O)O)CC[C@@H]1C)[C@H]1O[C@]2(C=C[C@@H](NC(=O)NCCCOC)[C@]3(CC[C@@](C)([C@H]4CC[C@](O)(CC)[C@H](C)O4)O3)O2)[C@H](C)C[C@@H]1C [FLC-00539-1•Na]	11.9	27.3	46.1	7.06	326	–
CC[C@@H](C(=O)[C@@H](C)[C@@H](O)[C@H](C)[C@@H]1O[C@@H]([C@@H](CC)C(=O)O)CC[C@@H]1C)[C@H]1O[C@]2(C=C[C@@H](NS(=O)(=O)c3cccs3)[C@]3(CC[C@@](C)([C@H]4CC[C@](O)(CC)[C@H](C)O4)O3)O2)[C@H](C)C[C@@H]1C [FLC-00505-1•Na]	8.3	14	15.2	7.61	116	–
CC[C@@H](C(=O)[C@@H](C)[C@@H](O)[C@H](C)[C@@H]1O[C@@H]([C@@H](CC)C(=O)O)CC[C@@H]1C)[C@H]1O[C@]2(C=C[C@@H](NC(=O)N3CCC3)[C@]3(CC[C@@](C)([C@H]4CC[C@](O)(CC)[C@H](C)O4)O3)O2)[C@H](C)C[C@@H]1C [FLC-00543-1•Na]	5.9	174	15.2	67	1020	–
CC[C@@H](C(=O)[C@@H](C)[C@@H](O)[C@H](C)[C@@H]1O[C@@H]([C@@H](CC)C(=O)O)CC[C@@H]1C)[C@H]1O[C@]2(C=C[C@@H](NC(=O)NCC3CCC(F)(F)CC3)[C@]3(CC[C@@](C)([C@H]4CC[C@](O)(CC)[C@H](C)O4)O3)O2)[C@H](C)C[C@@H]1C [FLC-00545-1•Na]	62.8	1.68	186.6	0.57	106	–
CC[C@@H](C(=O)[C@@H](C)[C@@H](O)[C@H](C)[C@@H]1O[C@@H]([C@@H](CC)C(=O)O)CC[C@@H]1C)[C@H]1O[C@]2(C=C[C@@H](NC(=O)NCCc3cccnc3)[C@]3(CC[C@@](C)([C@H]4CC[C@](O)(CC)[C@H](C)O4)O3)O2)[C@H](C)C[C@@H]1C [FLC-00567-1•Na]	25.0	34	54.2	15.7	848	–
